Key:
[1] = molecular target: Rabbit Reticulocyte Lysate (eukaryotic protein synthesis); assay: Rabbit reticulocyte lysate luciferase assay (inhibition of eukaryotic protein synthesis); assay type: biochemical; settings: % inhibition @ 1 μM, read-out: Rabbit reticulocyte IC50 (μM/% inhib.)
Method in brief: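 Percent inhibition calculated against water-only controls from luminescence; background set by lysate lacking RNA. Compounds, 8-point 2-fold titration, incubated 90 minutes at 30° C with nuclease-treated rabbit reticulocyte lysate programmed with luciferase control RNA plus complete amino acids.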

[2] = tested on: A. baumannn (Ab); assay: Broth microdilution minimum inhibitory concentration (MIC), CLSI; assay type: cell-based; settings: A. baumannn; growth medium with sodium bicarbonate; read-out: Ab + bicarb MIC
Method in brief: (§1)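 Two-fold serial dilutions in CAMHB, optionally with sodium bicarbonate (6.25 or 25 mM final) or heat-inactivated human serum (0-50%), 8 concentrations, triplicate. Inoculum 5×10^4 CFU/well from log-phase cultures grown at 35±2 °C to 0.5 McFarland.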

[3] = tested on: E. faecalis (Ef); assay: as above; assay type: cell-based; settings: Enterococcus faecalis, growth medium with sodium bicarbonate, read-out: Ef + bicarb MIC
Method in brief: as §1

[4] = tested on: E. coli (Ec); assay: as above; assay type: cell-based; settings: Escherichia coli, growth medium with sodium bicarbonate, read-out: E. coli + bicarb MIC
Method in brief: as §1

[5] = tested on: P. aeruginosa (Pa); assay: as above; assay type: cell-based; settings: Pseudomonas aeruginosa, growth medium with sodium bicarbonate, read-out: Pa MIC + bicarb
Method in brief: as §1

[6] = tested on: S. aureus (Sa); assay: as above; assay type: cell-based; settings: Staphylococcus aureus, growth medium with sodium bicarbonate, read-out: Sa + bicarb MIC
Method in brief: as §1

[7] = tested on: E. coli S30 extract (bacterial protein synthesis); assay: E. coli S30 extract coupled transcription-translation luciferase assay (inhibition of bacterial protein synthesis); assay type: biochemical; settings: % inhibition @ 1 μM, read-out: S30 IC50 (μM/% inhib.)
Method in brief: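 Luciferase luminescence quantified inhibition of protein synthesis relative to water controls, with no-DNA reactions giving background. Compounds in 2-fold serial dilution (8 levels) were incubated 1 hour at 37 °C with E. coli S30 extract, amino acids and pBESTluc plasmid, then chilled to stop.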

Compound	IC50 [1] [µM]	MIC [2] [µg/mL]	MIC [3] [µg/mL]	MIC [4] [µg/mL]	MIC [5] [µg/mL]	MIC [6] [µg/mL]	IC50 [7] [µM]
CC(C)(N)C(=O)N1CCN(C(=O)Nc2ccn(-c3ccc(CCCN4C[C@@H]5[C@@H](N)[C@@H]5C4)cc3)c(=O)n2)CC1 [Compound 179]	≥ 1	> 32	> 32	8 to 32	> 32	< 8	≥ 1
CC(C)(N)C(=O)N1CCN(C(=O)Nc2ccn(-c3ccc(CCCN4CCC5(CC4)CC(N)C5)cc3)c(=O)n2)CC1 [Compound 180]	≥ 1	> 32	> 32	< 8	> 32	8 to 32	≥ 1
CC(COc1ccc(-n2ccc(NC(=O)N3CCN(C(=O)C(C)(C)N)CC3)nc2=O)cc1)N1CC2(CC(N)C2)C1 (stereo not shown) [Compound 181]	≥ 1	> 32	< 8	< 8	> 32	< 8	0.5 to 1
CC(C)(N)C(=O)N1CCN(C(=O)Nc2ccn(-c3ccc(C[C@H](N)C(=O)N4C[C@@H]5[C@@H](CN)[C@@H]5C4)cc3)c(=O)n2)CC1 [Compound 182]	≥ 1	> 32	> 32	> 32	> 32	> 32	≥ 1
CC(C)(N)C(=O)N1CCN(C(=O)Nc2ccn(-c3ccc(C[C@H](N)C(=O)N4CC5CC5(CN)C4)cc3)c(=O)n2)CC1 (stereo partly shown) [Compound 183]	≥ 1	> 32	> 32	> 32	> 32	> 32	≥ 1
CC(C)(N)C(=O)N1CCN(C(=O)Nc2ccn(-c3ccc(CCCN4CC5CC5(CN)C4)cc3)c(=O)n2)CC1 (stereo not shown) [Compound 184]	≥ 1	> 32	8 to 32	< 8	> 32	< 8	≥ 1
CC(C)(N)C(=O)N1CCN(C(=O)Nc2ccn(-c3ccc(CCCN4C[C@@H]5[C@@H](CN)[C@@H]5C4)cc3)c(=O)n2)CC1 [Compound 185]	≥ 1	> 32	8 to 32	< 8	> 32	< 8	≥ 1
CC(CN1C[C@@H]2[C@@H](CN)[C@@H]2C1)Oc1ccc(-n2ccc(NC(=O)N3CCN(C(=O)C(C)(C)N)CC3)nc2=O)cc1 (stereo partly shown) [Compound 186]	≥ 1	8 to 32	< 8	< 8	> 32	< 8	< 0.5
CC(C)(N)C(=O)N1CCN(C(=O)Nc2ccn(-c3ccc(OCCN4C[C@@H]5[C@@H](CN)[C@@H]5C4)cc3)c(=O)n2)CC1 [Compound 187]	≥ 1	8 to 32	< 8	< 8	8 to 32	< 8	< 0.5
CC(COc1ccc(-n2ccc(NC(=O)N3CCN(C(=O)C(C)(C)N)CC3)nc2=O)cc1)N1C[C@@H]2[C@@H](CN)[C@@H]2C1 (stereo partly shown) [Compound 188]	≥ 1	8 to 32	< 8	< 8	8 to 32	< 8	< 0.5
CC(COc1ccc(-n2ccc(NC(=O)N3CCN(C(=O)C(C)(C)N)CC3)nc2=O)cc1)N1CC2CC2(CN)C1 (stereo not shown) [Compound 189]	≥ 1	> 32	< 8	< 8	> 32	< 8	< 0.5
CC(C)(N)C(=O)N1CCN(C(=O)Nc2ccn(-c3ccc(CNC[C@@H]4[C@H]5CNC[C@@H]45)cc3)c(=O)n2)CC1 [Compound 190]	≥ 1	> 32	8 to 32	< 8	> 32	< 8	< 0.5
CC(Cc1ccc(-n2ccc(NC(=O)N3CCN(C(=O)C(C)(C)N)CC3)nc2=O)cc1)N(C)C1CC2(CC(N)C2)C1 (stereo not shown) [Compound 191]	≥ 1	8 to 32	< 8	< 8	8 to 32	< 8	≥ 1
CC(Cc1ccc(-n2ccc(NC(=O)N3CCN(C(=O)C(C)(C)N)CC3)nc2=O)cc1F)NC1CC2(CC(N)C2)C1 (stereo not shown) [Compound 192]	≥ 1	> 32	< 8	< 8	> 32	< 8	≥ 1
CN(CCc1ccc(-n2ccc(NC(=O)N3CCN(C(=O)C(C)(C)N)CC3)nc2=O)cc1)C1CC2(CC(N)C2)C1 (stereo not shown) [Compound 193]	≥ 1	> 32	8 to 32	< 8	> 32	< 8	≥ 1
CC(Cc1ccc(-n2ccc(NC(=O)N3CCN(C(=O)C(C)(C)N)CC3)nc2=O)cc1)N(CC1CC1)C1CC2(CC(N)C2)C1 (stereo not shown) [Compound 194]	≥ 1	8 to 32	< 8	< 8	> 32	< 8	0.5 to 1
CC(Cc1ccc(-n2ccc(NC(=O)N3CCN(C(=O)C(C)(C)N)CC3)nc2=O)cc1)N(CC(F)(F)F)C1CC2(CC(N)C2)C1 (stereo not shown) [Compound 195]	≥ 1	> 32	> 32	> 32	> 32	8 to 32	≥ 1
CC(C)N(C(C)Cc1ccc(-n2ccc(NC(=O)N3CCN(C(=O)C(C)(C)N)CC3)nc2=O)cc1)C1CC2(CC(N)C2)C1 (stereo not shown) [Compound 196]	≥ 1	> 32	> 32	> 32	> 32	> 32	≥ 1
CC(Cc1ccc(-n2ccc(NC(=O)N3CCN(C(=O)C(C)(C)N)CC3)nc2=O)cc1)N(CCO)C1CC2(CC(N)C2)C1 (stereo not shown) [Compound 197]	≥ 1	> 32	8 to 32	< 8	> 32	< 8	≥ 1
CCN(C(C)Cc1ccc(-n2ccc(NC(=O)N3CCN(C(=O)C(C)(C)N)CC3)nc2=O)cc1)C12CC(N)(C1)C2 (stereo not shown) [Compound 198]	≥ 1	> 32	> 32	8 to 32	> 32	8 to 32	≥ 1
CC(Cc1ccc(-n2ccc(NC(=O)N3CCN(C(=O)C(C)(C)N)CC3)nc2=O)cc1)N(C)C12CC(N)(C1)C2 (stereo not shown) [Compound 199]	≥ 1	> 32	> 32	8 to 32	> 32	8 to 32	≥ 1
CC(Cc1ccc(-n2ccc(NC(=O)N3CCN(C(=O)C(C)(C)N)CC3)nc2=O)cc1)N(C)C12CC(CN)(C1)C2 (stereo not shown) [Compound 200]	≥ 1	> 32	> 32	< 8	> 32	< 8	≥ 1
CCN(C(C)Cc1ccc(-n2ccc(NC(=O)N3CCN(C(=O)C(C)(C)N)CC3)nc2=O)cc1)C12CC(CN)(C1)C2 (stereo not shown) [Compound 201]	≥ 1	> 32	< 8	< 8	> 32	< 8	< 0.5
CC(Cc1ccc(-n2ccc(NC(=O)N3CCN(C(=O)C(C)(C)N)CC3)nc2=O)cc1)NC12CC(N)(C1)C2 (stereo not shown) [Compound 202]	≥ 1	8 to 32	> 32	> 32	> 32	> 32	≥ 1
CC(Cc1ccc(-n2ccc(NC(=O)N3CCN(C(=O)C(C)(C)N)CC3)nc2=O)cc1)NC12CC(CN)(C1)C2 (stereo not shown) [Compound 203]	≥ 1	> 32	> 32	8 to 32	> 32	8 to 32	≥ 1
CC(Cc1ccc(-n2ccc(NC(=O)N3CCN(C(=O)C(C)(C)N)CC3)nc2=O)cc1)NCC1[C@H]2CNC[C@@H]12 (stereo partly shown) [Compound 204]	≥ 1	> 32	> 32	< 8	> 32	< 8	≥ 1
CC(Cc1ccc(-n2ccc(NC(=O)N3CCN(C(=O)C(C)(C)N)CC3)nc2=O)cc1)N1C[C@@H]2[C@H](C1)[C@H]2C(C)(C)N (stereo partly shown) [Compound 205]	≥ 1	> 32	> 32	8 to 32	> 32	8 to 32	≥ 1
CC(C)(N)C(=O)N1CCN(C(=O)Nc2ccn(-c3ccc(CN4C[C@@H]5C(C(C)(C)N)[C@@H]5C4)cc3)c(=O)n2)CC1 (stereo partly shown) [Compound 206]	≥ 1	> 32	8 to 32	< 8	> 32	< 8	< 0.5
